{"source": "patent US10344261B2", "about": "“Immunomodulatory conjugates” (ASCEND BIOPHARMACEUTICALS LTD, priority 2011, dated 2019)", "molecules": {"B1": {"name": ">1000 kDa oxidized mannan-MART-1: recombinant MART-1 protein linked to >1000 kDa oxidized mannan (conjugate, UniProt Q16655 1-118, looked up)", "Melanoma antigen recognized …": "MPREDAHFIYGYPKKGHGHSYTTAEEAAGIGILTVILGVLLLIGCWYCRRRNGYRALMDKSLHVGTQCALTRRCPQEGFDHRDSKVSLQEKNCEPVVPNAPPAYEKLSAEQSPPPYSP", "modifications": "conjugated to >1000 kDa oxidized mannan", "notes": "recombinant MART-1 protein linked to >1000 kDa oxidized mannan"}}, "key": {"PBMC": {"system": "PBMC", "assay": "Cytokine release assay to measure IL-6 from PBMC (ELISA)", "type": "cell-based, human", "settings": "for stimulation of IL-6 release by PBMC (in words): 6 and 24 hours; for EC50: Homo sapiens", "description": "Fresh blood was collected from healthy volunteers and stored in Heparin Sodium tubes. 15 mL of blood was subsequently transferred to a 50 ml centrifugal tube and gently mixed with equal volume of DPBS. 10 ml Ficoll was slowly underlayed using pipette. The tube was centrifuged for 30 minutes at 800 g at RT without break. The buffy coat (containing PBMC) was aspirated at the interface between serum and Ficoll. The PBMC were washed with sufficient DPBS and centrifuged at 900 g to remove the Ficoll. RPMI-1640 Medium was added to the collected PBMC and the number of PBMC determined by counting. 1 ml of blood typically yields at least 1 million of PBMC.\nPBMC were counted and cell densities adjusted. 100 μl of cells were added into the required number of wells such that the cell density for the IL-6 assay was 5,000/well. LD1-oxidized mannan conjugates for screening were serially diluted in DMSO. The LD1 solution was added to each well (final concentration of DMSO in assay was not more than 0.03%). The plates were incubated in a CO2 incubator at 37° C. and supernatants collected at 6 and 24 hours. At each time point of collection, the plates were centrifuged at 900 rpm for 4 minutes and the supernatents transferred to another 96 well plate. These were labelled and stored at −80° C. ELISA kits for IL-6 (Invitrogen) were used for quantitation of cytokine released. The ELISAs were performed as described in the manufacturer's instructions. The absorbances were measured by FlexStation 3. A standard curve for each cytokine was drawn each time for analyzing the data.\nThe Loxorubine (LOX) derivative, LD1, was synthesised and conjugated to oxidized mannan (LD1-OM) as described above. The LOX derivative, LD1, incorporates a hydrazide linkage for conjugation to aldehyde residues of oxidized mannan and an ester linkage between the linker and the LOX. LD1 oxidized mannan conjugates were used to stimulate PBMCs isolated from human donors and IL-6 cytokine release measured by ELISA."}, "[1]": {"system": "MART-1-specific CD8 T cells", "assay": "Priming and recall of MART-1-specific T cell responses (intracellular IFNγ)", "type": "cell-based, human", "settings": "PBMC and MoDC from donors BC28 and BC29, 20 μg/ml", "description": "MoDC at 2×10^5/ml (for 1:20 MoDC:T cell) in complete AB medium were added to a 24 well plate (1 ml per test condition) followed by protein or >1000 kDa oxidized mannan conjugate (10-20 μg/ml). Four hours later, 4×10^6 CD14 depleted PBMC were added to the wells in 1 ml complete AB medium. After 3 days, 25 U/ml IL-2, 10 ng/ml IL-7 and 10 ng/ml IL-15 was added. The T cells were re-stimulated 7-10 days later with 1×10^5 MoDC loaded with antigen. Twenty four hours following re-stimulation, cultures were supplemented with 25 U/ml IL-2 and again 3-4 days after. T cell cultures were typically analysed after 1 or 2 re-stimulations.\nFor T cell epitope peptides—Peptide loaded T2 cells (2×10^5/well) were prepared by pulsing with an irrelevant peptide (e.g., CAP-1 10 μg/ml or no peptide) and one with the peptide of interest ([…]) for 1 hour in serum free medium with 1.25 μg/ml β2-microglobulin. T2 cells were added at about a 1:5 ratio (4×10^4/well) in 100 μl to the duplicate T cell wells and incubate for 1 hour at 37° C. 5% CO2. […]\nPBMC and MoDC from 2 donors (BC28 and BC29) were used for priming with MART-1 and >1000 kDa oxidized mannan conjugates (20 μg/ml) as described in Example 1. After 1 stimulation, analog and native MART-1 peptide-specific T cell responses were measured using pulsed T2 cells (FIG. 51). […]"}}, "note": "Read-outs that look alike come from different tables or passages of the source.", "data": [{"molecule": "C=CCn1c(=O)n([C@@H]2O[C@H](COC(=O)c3ccc(NN)nc3)[C@@H](O)[C@H]2O)c2nc(N)[nH]c(=O)c21", "note": "[LD1, ((2R,3S,4R,5R)-5-(7-allyl-2-amino-6,8-dioxo-1,6,7,8-tetrahydropurin-9-yl)-3,4-dihydroxy-tetrahydrofuran-2-yl)methyl 6-hydrazinylnicotinate]", "values": [{"measurement": "stimulation of IL-6 release by PBMC (in words)", "setting": "PBMC; LOX at 500 μM", "value": "did not stimulate IL-6"}]}, {"molecule": "C=CCn1c(=O)n([C@@H]2O[C@H](CO)[C@@H](O)[C@H]2O)c2nc(N)[nH]c(=O)c21", "note": "[LOX, 7-allyl-7,8-dihydro-8-oxo-guanosine]", "values": [{"measurement": "stimulation of IL-6 release by PBMC (in words)", "setting": "PBMC; LOX at 500 μM", "value": "able to stimulate IL-6 release"}, {"measurement": "Amount IL-6 (pg/ml), 6 hr", "setting": "PBMC; 6 hr, LOX at 500 μM", "value": "failed to induce IL-6"}, {"measurement": "Amount IL-6 (pg/ml), 24 hr", "setting": "PBMC; 24 hr, LOX at 500 μM", "value": 10, "unit": "pg/mL"}, {"measurement": "EC50", "setting": "PBMC; 6 hr, read-out: EC50 of IL-6, 6 hr", "value": "> 500", "unit": "µM"}, {"measurement": "EC50", "setting": "PBMC; 24 hr, read-out: EC50 of IL-6, 24 hr", "value": "> 500", "unit": "µM"}]}, {"molecule": "B1", "values": [{"measurement": "MART-1-specific T cell responses after priming", "setting": "[1]", "value": "efficiently responded to analog or native MART-1 peptides presented by T2 cells"}, {"measurement": "MART-1-specific T cell responses after priming", "setting": "[1]; listed as MART-1 >1000 kDa oxidized mannan", "value": "more efficient in priming than unconjugated protein"}]}]}
